# From US9290427B2, “Anti-invasive compounds” (Universiteit Gent, priority 2012, dated 2016)
# “And” between values parts separate entries of the source, which are not always exact repeats. Equal entries are not always repeated.
# Experiments:
# BLM cells = test: Matrigel invasion assay; assay type: cell-based; conditions: for Number of invasive BLM-cells found at the basolateral side of the filter: 24 h, samples 1 and 2
# From the text: An interesting method to determine the invasive capacity of cells and the anti-invasive potential of different substances is the matrigel invastion assay. Matrigel can be considered to be a basal membrane and is obtained from mice EHS sarcomas (tumors having an abundant expression of extracellular matrix proteins). The primary component of a matrigel is laminin, further also including collagen IV, heparan, sulphate proteoglycans and growth factors. It is also important that matrix degrading enzymes and inhibitors are present.
# At room temperature, matrigel polymerizes into a matrix which mimicks a basal membrane of breast cells. The behavior of cells towards a matrigel highly resembles the in vivo situation and therefore this test is acknowledged to be an appropriate approach to the study migration and invasion, and the role of ECM receptors and matrix degrading enzymes in these processes.
# In particular for this example, test cells were placed on a matrigel layer in serum-free medium. Subsequently, said cells were allowed to invade into the matrigel layer upon which they move through a filter, and attach to the bottom of said filter. The migration of the cells is stimulated by the presence of conditioned medium, at the other side of the filter, which act as a chemoattractant for the cells.
# 50 μl matrigel (+/−3 mg/ml serum-free DMEM) was applied in the apical compartment (upper chamber) of 24-well plate inserts having a pore size of 8 μm. After 1 h of polymerization (37° C.) 50.000 BLM cells (in 150 μl serum-free DMEM) were seeded and incubated with varying concentrations of compound 49 (0-100 μM). In the basolateral compartment (lower chamber), 700 μl conditioned medium, containing the same concentration of compound 49 as used in the apical compartment was applied as a chemo-attractant for the cells. The plates were incubated for 24 h at 37° C. and the matrigel and cells at the apical side were removed using wetted cotton swabs (PBSD-). The filters were washed twice on both sides with PBSD- and subsequently incubated for 10 min in ice-cold methanol to fix the cells. To quantify the number of migrated cells, the filters were incubated for 15 min with DAPI and subsequently washed 4×5 min with PBSD-. The filters were then mounted on coverslips and the number of migrated cells was determined for each concentration of compound 49 using a fluorescence microscope.
# BLM melanoma cells = test: SRB test, BLM; assay type: cell-based
# Procedure: (§1) The SRB assay is used to evaluate growth effects on cells, and measures the total protein content. In this test, 5,000 cells are seeded in a cup of a 96-well plate. Upon a 24 h-attachment period, cells are treated with a certain amount of the test molecule (dissolved in DMSO). After a pre-chosen incubation time, cells are fixed with 50 μL of 50% trichloroacetic acid (2° C., 1 h). Afterward, the plate is rinsed five times with tap water, and air dried overnight.
# (§2) Next, proteins are stained with 75 μL of a 0.4% solution of SRB in AcOH (30 min). Unbound SRB is subsequently removed by washing with a 1% solution of glacial AcOH, whereupon the plate is air dried. Then, bound SRB is redissolved in 100 μL of a 10 mmol·L^−1 tris(hydroxymethyl)aminomethane (Tris) buffer (pH=10.5), after which optical density is determined at 490 nm with a spectrophotometer.
# As 4-fluoro-3′,4′,5′-trimethoxychalcone had exerted an anti-invasive activity on BLM melanoma cells in the Matrigel invasion assay, we were intrigued to verify how its effect on the viability of BLM cells would compare to that observed for the MCF-7 cell lines.
# [1] = system: HCT8-E11 colon carcinoma cells; test: MTT test, HCT8-E11; assay type: cell-based, human
# Procedure: (§3) An MTT test provides an indication of cell viability, proliferation and activity through determination of the mitochondrial conversion of 3-(4,5-dimethylthiazol-2-yl)-2,5-diphenyltetrazolium bromide (MTT), a yellow salt, into formazan, a salt that precipitates under the form of blue crystals.
# (§4) In concreto, 5,000 cells are seeded in a cup of a 96 well-plate, treated with the desired amount of the test substance, and incubated for a chosen period of time. Next, 40 μL of a filtered (0.2 μm) 5 mg·mL^−1 solution of MTT in PBS is added to the cup. After 2 h of incubation at 37° C. in the dark, all liquid is removed. The obtained formazan salts are dissolved in 200 μL of DMSO, whereupon optical density is measured at 490 nm.
# (§5) In order to verify whether the antiproliferative effects of compound 49, witnessed in BLM and MCF-7/6 cells at high concentrations, were cell specific, additional SRB and MTT assays on a further five cell lines (HCT8-E11, TR146, FaDu, 3T3-L1 and CT5.3) were conducted (FIG. 8). The results for MCF-7/6 cells were added to facilitate comparison.
# (§6) The CT5.3 cell line consists of human myofibroblasts which were isolated from a colon tumor (Van Hoorde et al., 1999). 3T3-L1 cells are murine fibroblasts, originating from embryo's of Swiss mice (Todaro and Green, 1963). HCT8-E11, FaDu and TR146 are human epithelial cancer cell lines. […]
# TR146 cells = test: SRB test, TR146; assay type: cell-based, human; conditions: 1 or 10 μmol·L−1, 24 h
# Procedure: as §1, §2, §5
# The CT5.3 cell line consists of human myofibroblasts which were isolated from a colon tumor (Van Hoorde et al., 1999). […]
# CT5.3 myofibroblasts = test: MTT test, CT5.3; assay type: cell-based, human; conditions: 10 μmol·L−1, 24 h
# Procedure: as §3, §4, §5, §6
smiles,measurement,setting,value
"COc1cc(C(=O)/C=C/c2ccc(F)cc2)cc(OC)c1OC [Compound 49, (2E)-3-(4-Fluorophenyl)-1-(3,4,5-trimethoxyphenyl)propenone]",reduction of the number of invasive cells,BLM cells; 0.1 μM,80%
same,reduction of the number of invasive cells,BLM cells; 1 μM,67%
same,Number of invasive BLM-cells found at the basolateral side of the filter,BLM cells; 1 μM,282 and 160
same,reduction of the number of invasive cells,BLM cells; 10 μM,93%
same,Number of invasive BLM-cells found at the basolateral side of the filter,BLM cells; 10 μM,57 and 33
same,reduction of the number of invasive cells,BLM cells; 100 μM,98%
same,reduction in total protein content,"BLM melanoma cells; 0.1 μmol·L−1, 24 h",no effect was apparent
same,change in total protein content,"BLM melanoma cells; 10 μmol·L−1, 24 h, significant reduction",−20%
same,reduction in total protein content,"BLM melanoma cells; 1 and 10 μmol·L−1, 24 h (p<0.01)",20%
same,reduction in mitochondrial activity,"[1]; 10 μmol·L−1, 24 h",40%
same,reduction in mitochondrial activity,"[1]; elevated concentrations 10-100 μmol·L−1, summary",~50%
same,total protein content versus solvent control,TR146 cells,no significant differences
same,decrease in mitochondrial activity,CT5.3 myofibroblasts,22%
